# Experimental data taken from paper PMC10079954, “Rational design of phase separating peptides based on phase separating protein sequence of p53” (Scientific Reports, 2023).
# Test: Cross-β structure detection with amyloid-sensitive probe Picogreen
# Type: physicochemical
# Procedure: Differential interference contrast (DIC) microscopy confirmed that these peptides (0.9–1.8 mM) underwent phase separation in 25 mM HEPES and 0.5 mM EDTA at pH 7.0 (Fig. 2B). To prevent the melting of clusters on the coverslip surface, 2-methacryloyloxyethyl phosphorylcholine (MPC) polymer coating was used[36],[37] (Supplementary Fig. S1). Samples were prepared by sonicating a 2 mM peptide solution or diluting the peptide solution from a 10 mM peptide stock after storage under freezing conditions. Four of the designed peptides, except DPp53N-GSGS-DPp53C2, formed μm-sized spherical clusters. Fluorescence microscopy confirmed the high concentration of peptides labeled with the fluorescent dye Alexa488 in the clusters (Fig. 2B). […] Cross-β structure was also supported by the observation of intrinsic fluorescence upon 400–440 nm excitation[40] (Supplementary Fig. S2). Clusters of aromatic W residues in DPp53N-GSGS-DPp53C2 may lead to the formation of solid aggregates, which is consistent with the results of different systems[21],[34].
# The DIC and fluorescence modes of an inverted microscope (IX-73; Olympus, Tokyo, Japan) equipped with microscopic objectives (60 × and 10 ×) and a camera (DP74) were used, as described previously. We used the solution containing 0.9–1.8 mM designed peptide, 0.1 μM Alexa488-labeled peptide, 25 mM HEPES, and 0.5 mM EDTA at pH 7.0. To detect the cross-β structure, picogreen was added at 25 µM for DPp53N-GSGS-DPp53C2 or 2.5 µM for others instead of the Alexa488-labeled peptide. […] DIC and fluorescence images were obtained at 20 or 22 °C. For intrinsic fluorescence measurements, the excitation and detection wavelengths were 440–440 nm and larger than 460 nm, respectively.
# Fig. S8 Time course of cross-β structure formation of designed peptides in droplets monitored by DIC and fluorescence images. The fluorescence was detected corresponding to the amyloid marker Picogreen at 2.5 µM in a solution containing 0.9 mM designed peptides, 25 mM HEPES, and 0.5 mM EDTA at pH 7.0 and 22 °C.
sequence,measurement,setting,value
RRRVVQRRRRGGGSGGGSGGGSDDDASQEDDD [DPp53N-(GGGS)3-DPp53C1],Picogreen fluorescence intensity in droplets versus solution,"Picogreen 2.5 µM, 0.9 mM designed peptide, 25 mM HEPES, 0.5 mM EDTA, pH 7.0, 22 °C",higher than that in the solution
same,Cross-β structure and state of droplets after long-term incubation,long-term incubation,gel-like assemblies of the droplets
